Six molecules from patent publication US8816097B2, “Active ingredient combinations having insecticide and acaricide properties” (Bayer CropScience AG, priority 2006, dated 2014) can be followed below.

The test system of assay [1] is larvae of the mustard beetle (Phaedon cochleariae). The experiment in a line: Phaedon cochleariae larvae test (sprayed cabbage leaves). Conditions: single active compound, 100 g/ha.
Assay [2] relates to green peach aphid (Myzus persicae). The experiment in a line: Myzus persicae test (sprayed cabbage leaves). Format: in vivo. Conditions: single active compound, 100 g/ha. From the text:
(§1) Solvents: 78 parts by weight of acetone

Assay [3] relates to two-spotted spider mite (Tetranychus urticae). The experiment in a line: Tetranychus urticae test (sprayed dwarf bean leaves). It is filed as in vivo. The following applies: single active compound.
Source text: as §1

Assay [4] relates to larvae of the army worm (Spodoptera frugiperda). The experiment in a line: Spodoptera frugiperda test (sprayed cabbage leaves). Format: in vivo. The following applies: single active compound, 100 g/ha.
Source text: as §1

In the case of `Cc1nn(C)c(/C(OC(=O)C(C)(C)C)=C(\C#N)c2ccc(C(C)(C)C)cc2)c1C` [Cyenopyrafen, (1E)-2-cyano-2-[4-(1,1-dimethylethyl)phenyl]-1-(1,3,4-trimethyl-1H-pyrazol-5-yl)ethenyl 2,2-dimethylpropanoate], the figures for the “Kill level in % after 6d” value in assay [1] and in assay [2] were 50% and 0%, respectively. Further, the “Kill rate in % after 2d” value in assay [3] (0.8 g/ha) amounted to 80%.

On to `COCCOC(=O)C(C#N)(C(=O)c1ccccc1C(F)(F)F)c1ccc(C(C)(C)C)cc1` (stereo not drawn) [Cyflumetofen, 2-methoxyethyl alpha-cyano-alpha-[4-(1,1-dimethylethyl)phenyl]-beta-oxo-2-(trifluoromethyl)benzenepropanoate], for which the “Kill level in % after 6d” value in assay [1], in assay [2] and in assay [4] was 0% each time. For the same molecule, the “Kill rate in % after 2d” value in assay [3] (0.8 g/ha) stood at 20%.

As to `CSC(=O)O/C(=C(/C#N)c1ccc(Cl)cc1)c1ccccc1C(F)(F)F` [IKA 2002], the entries for the “Kill level in % after 6d” value in assay [1] and in assay [4] were 33% and 0%, respectively. Besides, the “Kill rate in % after 2d” value in assay [3] (0.032 g/ha) and in assay [3] (0.8 g/ha) was 0% each time.

In the case of `CCC(C)(C)C(=O)OC1=C(c2ccc(Cl)cc2Cl)C(=O)OC12CCCCC2` [Spirodiclofen], the “Kill rate in % after 2d” value in assay [3] (0.8 g/ha) was determined as 10%.

`Cc1cc(C)c(C2=C(OC(=O)CC(C)(C)C)C3(CCCC3)OC2=O)c(C)c1` [Spiromesifen]: in assay [2], the “Kill level in % after 6d” value was 70%. The “Kill rate in % after 2d” value is 0% in assay [3] (0.16 g/ha) and 10% in assay [3] (0.8 g/ha).

`CCOC(=O)OC1=C(c2cc(C)ccc2C)C(=O)N[C@]12CC[C@@H](OC)CC2` [Spirotetramat]: the figures for the “Kill level in % after 6d” value in assay [1] and in assay [4] were 33% and 50%, respectively. Moreover, the “Kill rate in % after 2d” value in assay [3] (0.8 g/ha) is on record as 0%.
